Results on 40 compounds are retold here after patent publication US20240174625A1, “COMPOSITIONS AND METHODS FOR TREATING TAUOPATHIES” (The Regents of the University of California, priority 2021, published 2024).

One series concerns the target T1, NPEPPS (Homo sapiens, UniProt P55786).
T1 construct: endogenous in cells; host or cells: HEK293T
Kind of series: Cell-based NPEPPS activity assay (Q-AMC fluorescence). The following applies: for EC50: log10 transformed, EC50 = concentration that elevates 50% NPEPPS activity (150% of DMSO baseline), HEK293T cells; for fluorescence change (NPEPPS activity): Q-AMC assay, inhibitors, FIG. 2D. As to the method: HEK293T cells (AATC) were maintained in a complete media containing DMEM (Gibco 11995-065) in the presence of 10% fetal bovine serum (FBS, Gibco 10082147), […] penicillin and 50 μg/ml streptomycin (Gibco 15140163) at 37° C. with 5% CO2. NPEPPS activity assay was conducted in a fresh-prepared minimal medium containing essential amino acids, vitamin, AlbuMax (Invitrogen 11021-029) in 1×HBS buffer. Black wall, clear bottom 384-well assay plates (Greiner EK-30092) were coated with poly-L-ornithine (0.1 mg/ml, Sigma P3655) overnight and washed once with 1×PBS. 15 μl minimal medium was then added to each well. 250 nL of compounds dissolved in OmniSolve methylsulfoxide (dimethyl sulfoxide, DMSO, Sigma MX1456P) were pinned to each well via Biomek FX^P Liquid Handling Automation (Beckman Coulter) from compound source plates, i.e., either pre-made compound libraries or JMM compounds (20-step, 2-fold dilution) dissolved in OmniSolve DMSO prepared via Biomek automation in 384-well clear V-bottom polypropylene microplates (ThermoScientific 50-823-639). Cells were harvested, resuspended in minimal medium, and seeded at 16,500 cells/15 μl/well in the 384-well assay plates. 24 hrs later, 30 μl 200 μM H-Gln-AMC hydrobromide salt (Q-AMC, Bachem #I-1175) in 1×HBS containing 0.1% DMSO was added into each well. The fluorescent signal at excitation/emission wavelengths of 360/460 nm was measured immediately upon Q-AMC addition and 3 hrs post-Q-AMC. The change in fluorescence is measured as a readout of NPEPPS activity.
To identify small molecules that either increase NPEPPS levels or NPEPPS activity, a cell-based NPEPPS activity assay amenable to high-throughput screening (HTS) by adapting a fluorescent peptidase activity assay^2 was developed. Since NPEPPS is one of the only aminopeptidases capable of cleaving glutamine-peptide bonds^3 and the major aminopeptidase responsible for degradation of poly-glutamine sequences in the brain^4, a fluorogenic compound, glutamine-7-amino-4-methylcoumarin (Q-AMC), was selected as a substrate to measure NPEPPS activity. The peptide bond of Q-AMC is hydrolyzed by NPEPPS to release glutamine and a fluorescent product, 7-amino-4-methylcoumarin (AMC), when Q-AMC is added directly to the cell culture media. This change in fluorescence is measured as a readout of aminopeptidase activity (FIG. 2A). Overexpression of NPEPPS in HEK293T cells results in a significant increase in fluorescence, whereas knock-down or chemical inhibition of NPEPPS decrease fluorescence change (FIG. 2B-D), validating that the changes in fluorescence observed in the Q-AMC-based assay directly correlate with changes in NPEPPS activity. A high-throughput (HTS) screen (201,845 compounds) was conducted at the UCLA MSSR core (FIG. 2E). Follow-up assays and chemical clustering identified three series of compounds with distinct chemical clusters (FIG. 2F).
(§1) To investigate the effects of JMM compounds that enhance NPEPPS activity and assess their cellular toxicity, 139 compounds in the JMM series (i.e., JMM001-JMM139) were tested in dose responses (20-step, 2-fold dilution) using NPEPPS activity and viability assays in HEK293T cells. 76 compounds harboring different modifications produce concentration-dependent enhancement on NPEPPS activity compared to DMSO control (FIG. 4). […] A therapeutic index (TI, a ratio of IC50 over EC50) is used to evaluate the relative safety profiles of the compounds. […] 16 JMM compounds show both improved potency and reduced toxicity (EC50<10 μM and TI>10, Table 1).

In another series the test system is HEK293T cells. The series is described as follows: Cell viability assay (CellTiter Glo). The format is cell-based, human. The following applies: for IC50: Homo sapiens, HEK-293T, log10 transformed, IC50 = concentration that suppresses 50% cell viability, HEK293T cells; for Therapeutic index: ratio of IC50 (cell viability) over EC50 (NPEPPS activity). As to the method: HEK293T cells (AATC) were maintained in complete media and cell viability assay was conducted in a fresh-prepared minimal medium containing essential amino acids, vitamin, AlbuMax (Invitrogen 11021-029) in 1×HBS buffer. White 384-well assay plates (Greiner EK-30080) were coated with poly-L-ornithine (0.1 mg/ml) overnight and washed once with 1×PBS. 15 μl minimal medium was then added to each well. 250 nl of compounds dissolved in OmniSolve DMSO were pinned to each well via Biomek FX^P Liquid Handling Automation from compound source plates. Cells were harvested, resuspended in minimal medium, and seeded at 16,500 cells/15 μl/well in the 384-well assay plates. 24 hrs later, 25 μl/well CellTiter Glo reagent (Promega G7572) was added into each well, and luminescence (0.5 second integration time) was acquired following manufacture's protocol. Luminescence count normalized to DMSO control is used as a readout of cell viability.
as §1

The structures appear in SMILES notation.

T1 sequence (P55786 whole entry): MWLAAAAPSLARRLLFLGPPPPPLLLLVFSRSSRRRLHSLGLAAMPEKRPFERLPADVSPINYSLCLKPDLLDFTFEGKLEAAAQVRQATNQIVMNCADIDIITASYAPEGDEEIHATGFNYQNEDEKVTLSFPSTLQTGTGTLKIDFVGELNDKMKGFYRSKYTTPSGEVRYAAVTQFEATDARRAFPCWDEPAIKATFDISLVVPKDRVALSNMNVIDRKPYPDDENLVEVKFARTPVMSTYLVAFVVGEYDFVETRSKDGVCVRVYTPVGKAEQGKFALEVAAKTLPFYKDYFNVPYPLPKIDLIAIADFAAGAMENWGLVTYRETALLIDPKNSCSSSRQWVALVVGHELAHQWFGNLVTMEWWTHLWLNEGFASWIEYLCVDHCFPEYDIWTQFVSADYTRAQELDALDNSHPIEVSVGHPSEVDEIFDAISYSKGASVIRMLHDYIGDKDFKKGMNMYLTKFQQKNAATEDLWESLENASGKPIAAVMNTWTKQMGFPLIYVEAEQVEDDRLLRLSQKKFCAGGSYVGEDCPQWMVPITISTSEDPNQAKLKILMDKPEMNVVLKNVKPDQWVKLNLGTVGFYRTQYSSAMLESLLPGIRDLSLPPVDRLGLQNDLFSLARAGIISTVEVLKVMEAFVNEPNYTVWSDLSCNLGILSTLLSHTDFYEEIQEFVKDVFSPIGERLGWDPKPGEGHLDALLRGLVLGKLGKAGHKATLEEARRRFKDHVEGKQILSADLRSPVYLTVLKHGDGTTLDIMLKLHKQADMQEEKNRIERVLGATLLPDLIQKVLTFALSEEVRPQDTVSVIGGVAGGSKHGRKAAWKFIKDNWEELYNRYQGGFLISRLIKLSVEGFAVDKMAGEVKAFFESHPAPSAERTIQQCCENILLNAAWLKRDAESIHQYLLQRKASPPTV

Usually EC50 stands for the concentration at which the effect is half-maximal. By IC50 is commonly meant the concentration needed to halve the response being measured. At NPEPPS, `COc1ccc(C(=O)Nc2nsc3ccccc23)cc1OC` [JMM002] showed an EC50 of 1020 µM. Further, in the series with HEK293T cells, the IC50 is 1410 µM and the Therapeutic index was 1.36.
As to `COc1ccc(CNc2nsc3ccccc23)cc1` [JMM003], the midpoint of the response at NPEPPS, the EC50, lay at 257 µM. In the series on HEK293T cells, half-maximal inhibition (IC50) required 263 µM and the Therapeutic index is 1.03.
As for `COc1ccc(C(=O)Nc2nsc3ccccc23)cc1` [JMM004], the half-maximal effective concentration (EC50) on NPEPPS was 407 µM. Also, in the series with HEK293T cells, the half-inhibitory concentration (IC50) was 372 µM and the Therapeutic index is on record as 0.90.
`FC(F)(F)c1ccc(CNc2nsc3ccccc23)cc1` [JMM005] had an EC50 on NPEPPS of 34.7 µM. In addition, in the series with HEK293T cells, the midpoint of inhibition, the IC50, lay at 117 µM and the Therapeutic index is reported as 3.42.
`O=C(Nc1nsc2ccccc12)c1ccc2c(c1)OCCO2` [JMM006]: in the series on HEK293T cells, the half-inhibitory concentration (IC50) is 282 µM.
Still for that read-out and setting: the figure for `O=C(Nc1nsc2ccccc12)c1ccc(C(F)(F)F)cc1` [JMM007] is 1740 µM.
For the compound `c1ccc(CNc2nsc3ccccc23)cc1` [JMM009], the midpoint of the response on NPEPPS, the EC50, lay at 129 µM. In addition, in the series on HEK293T cells, the IC50 was 224 µM and the Therapeutic index was determined as 1.76.
As to `COc1cccc(CNc2nsc3ccccc23)c1` [JMM010], it took 97.7 µM to reach half-maximal inhibition with HEK293T cells (IC50). This counts as double-digit micromolar.
As for `Fc1ccc(CNc2nsc3ccccc23)cc1` [JMM011], the 50% effective concentration (EC50) on NPEPPS was 316 µM. Further, in the series with HEK293T cells, the half-maximal inhibitory concentration (IC50) was 389 µM and the Therapeutic index turned out to be 1.25.
In the case of `c1ccc2c(NCc3ccncc3)nsc2c1` [JMM012], the EC50 on NPEPPS was 148 µM. In addition, in the series on HEK293T cells, the concentration for half-maximal inhibition (IC50) was 126 µM and the Therapeutic index came to 0.86.
`c1ccc(COc2ccc(CNc3nsc4ccccc34)cc2)cc1` [JMM014] gave an EC50 at NPEPPS of 12.9 µM. In the series with HEK293T cells, the IC50 was 22.4 µM and the Therapeutic index was 1.75.
Compound `Brc1ccc(CNc2nsc3ccccc23)cc1` [JMM016] showed an EC50 at NPEPPS of 126 µM. Also, in the series on HEK293T cells, the midpoint of inhibition, the IC50, lay at 47.9 µM and the Therapeutic index amounted to 0.38.
For `c1ccc2c(NCc3ccc4c(c3)OCCO4)nsc2c1` [JMM017] the same measures were 288 µM, 204 µM and 0.71.
`c1ccc2c(CNc3nsc4ccccc34)c3ccccc3cc2c1` [JMM018] gave a half-maximal inhibitory concentration (IC50) in the series on HEK293T cells of 9550 µM.
In the case of `CN(C)c1ccc(CNc2nsc3ccccc23)cc1` [JMM019], at NPEPPS, the concentration for a half-maximal effect (EC50) was 240 µM. Further, in the series with HEK293T cells, the IC50 is 195 µM and the Therapeutic index is listed as 0.82.
Consider `COc1ccc(CCNc2nsc3ccccc23)cc1OC` [JMM020], for which the 50% effective concentration (EC50) at NPEPPS was 251 µM. For the same compound, in the series on HEK293T cells, half-maximal inhibition (IC50) required 120 µM and the Therapeutic index is 0.48.
As to `Clc1ccc(CNc2nsc3ccccc23)cc1Cl` [JMM021], the EC50 at NPEPPS is 32.4 µM. In the series on HEK293T cells, it took 58.9 µM to reach half-maximal inhibition (IC50) and the Therapeutic index came out at 1.80.
On to `Fc1cc(Cl)ccc1CNc1nsc2ccccc12` [JMM022], for which a half-maximal response on NPEPPS (EC50) required 186 µM. Also, in the series on HEK293T cells, the IC50 is 6460 µM and the Therapeutic index is on record as 34.72.
In the same order, the values of `Cc1ccc(CNc2nsc3ccccc23)cc1` [JMM023] are 51.3 µM, 229 µM and 4.47.
As to `COC(=O)c1ccc(CNc2nsc3ccccc23)cc1` [JMM024], on NPEPPS, the EC50 is 158 µM. In the series with HEK293T cells, the IC50 was 437 µM and the Therapeutic index came to 2.76.
In the same order, the values of `COc1ccc(Nc2nsc3ccccc23)cc1OC` [JMM025] are 372 µM, 575 µM and 1.54.
Turning to `COc1ccc(CNc2nsc3cccc(OC)c23)cc1OC` [JMM026], a half-maximal response on NPEPPS (EC50) required 41.7 µM. Besides, in the series on HEK293T cells, the midpoint of inhibition, the IC50, lay at 129 µM and the Therapeutic index is 3.05.
For the compound `Fc1cccc2c(NCc3ccc(C(F)(F)F)cc3)nsc12` [JMM027], at NPEPPS, the EC50 is 53.7 µM. In addition, in the series on HEK293T cells, the midpoint of inhibition, the IC50, lay at 52.5 µM and the Therapeutic index is recorded as 0.98.
Compound `FC(F)(F)c1ccc(CNc2nsc3c(Br)cccc23)cc1` [JMM028] gave a concentration for a half-maximal effect (EC50) on NPEPPS of 28.8 µM. In the series with HEK293T cells, the IC50 is 33.9 µM and the Therapeutic index was determined as 1.19.
The compound `c1ccc(C(Nc2nsc3ccccc23)c2ccccc2)cc1` [JMM029] had an EC50 on NPEPPS of 7.08 µM. In the series with HEK293T cells, it took 324 µM to reach half-maximal inhibition (IC50) and the Therapeutic index is reported as 45.28.
At NPEPPS, `c1cc(CNc2nsc3ccccc23)c2cc[nH]c2c1` [JMM030] gave a concentration for a half-maximal effect (EC50) of 219 µM. Besides, in the series with HEK293T cells, the IC50 is 257 µM and the Therapeutic index is reported as 1.16.
The compound `COc1ccc(CNc2nccc3ccccc23)cc1OC` [JMM034] had an IC50 with HEK293T cells of 186 µM.
Take `COc1ccc(CNc2ncnc3ccccc23)cc1OC` [JMM036]: the IC50 in the series on HEK293T cells was 135 µM.
On the same count and under the same terms, the figure for `CS(=O)(=O)N(Cc1ccc(C(F)(F)F)cc1)c1nsc2ccccc12` [JMM071] is 10 µM; for `c1ccc2c(CNc3nsc4ccccc34)nccc2c1` [JMM074] it is 1820 µM.
Regarding `O=C1c2ccccc2C(=O)N1c1nsc2cnccc12` [JMM085], the IC50 in the series with HEK293T cells is 3160 µM.
Regarding `c1ccc2c(c1)CN(c1nsc3ccccc13)C2` [JMM087], in the series with HEK293T cells, the IC50 was 229 µM.
Regarding `c1ccc(COc2ccc3snc(NC4c5ccccc5-c5ccccc54)c3c2)cc1` [JMM089], in the series with HEK293T cells, the IC50 was 3310 µM. Compared with the last compound, the IC50 is about 14-fold higher.
The compound `c1ccc(COc2ccc3snc(NCc4ccc(OCc5ccccc5)c5ccccc45)c3c2)cc1` [JMM116, 5-(Benzyloxy)-N-((4-(benzyloxy)naphthalen-1-yl)methyl)benzo[d]isothiazol-3-amine] showed a half-inhibitory concentration (IC50) in the series on HEK293T cells of 1000 µM.
Take `c1ccc(COc2ccc3snc(NCc4ccc(Cc5ccccc5)cc4)c3c2)cc1` [JMM120, N-(4-benzylbenzyl)-5-(benzyloxy)benzo[d]isothiazol-3-amine]: the IC50 in the series with HEK293T cells was 1050 µM.
Compound `Cc1cc(C)c(COc2ccc(CNc3nsc4ccc(OCc5ccccc5)cc34)cc2)c(C)c1` [JMM123, 5-(Benzyloxy)-N-(4-((2,4,6-trimethylbenzyl)oxy)benzyl)benzo[d]isothiazol-3-amine] had an IC50 with HEK293T cells of 661 µM.
Take `c1ccc(COc2ccc3snc(NCc4ccc(COc5ccccc5)cc4)c3c2)cc1` [JMM124, 5-(Benzyloxy)-N-(4-(phenoxymethyl)benzyl)benzo[d]isothiazol-3-amine]: in the series with HEK293T cells, 724 µM corresponded to half-maximal inhibition (IC50).
In the series on HEK293T cells, `c1ccc(COc2ccc3snc(NCc4ccc(N(Cc5ccccc5)Cc5ccccc5)cc4)c3c2)cc1` [JMM126, 5-(Benzyloxy)-N-(4-(dibenzylamino)benzyl)benzo[d]isothiazol-3-amine] had an IC50 of 1260 µM.
Take `CC(C)C[C@H](NC(=O)[C@@H](O)[C@H](N)Cc1ccccc1)C(=O)O` [bestatin, reference compound]: the “fluorescence change (NPEPPS activity)” value on NPEPPS is on record as “decreases in fluorescence change”.
In the case of `COc1ccc(C[C@H](N)C(=O)N[C@H]2[C@@H](O)[C@H](n3cnc4c(N(C)C)ncnc43)O[C@@H]2CO)cc1` [puromycin, reference compound], the “fluorescence change (NPEPPS activity)” value at NPEPPS was “decreases in fluorescence change”.
